Results as given in ChEMBL document CHEMBL6153037, “Developing dual-responsive quinolinium prodrugs of 8-hydroxyquinoline by harnessing the dual chelating sites” (Eur J Med Chem, 2025).
Activity calls are given as the source filed them. The calls are words filed in the database; no cut-off is given here.

Columns and labels:
[1] = Prodrug conversion in solution containing Cu(II) assessed as 8-HQ-Cu(II) complex formation at 50 uM measured upto 30 mins by UV-Vis spectrophotometry; type: ADME; conditions: 0.5 h
[2] = Prodrug conversion in solution containing ONOO- assessed as 8-HQ release; type: ADME
MDA-MB-231 [3] = experiment: Cytotoxicity against CuCl2-treated human MDA-MB-231 cells assessed as inhibition of cell viability incubated for 48 hrs by MTT assay; type: functional, cell-based; conditions: MDA-MB-231, 48 h
A549 = experiment: Cytotoxicity against CuCl2-treated human A549 cells assessed as inhibition of cell viability incubated for 48 hrs by MTT assay; type: functional, cell-based; conditions: A549, 48 h
OVCAR-3 = experiment: Cytotoxicity against CuCl2-treated human OVCAR-3 cells assessed as inhibition of cell viability incubated for 48 hrs by MTT assay; type: functional, cell-based; conditions: OVCAR-3, 48 h
MDA-MB-231 [4] = experiment: Cytotoxicity against LPS-treated human MDA-MB-231 cells incubated for 48 hrs by MTT assay; type: functional, cell-based
MDA-MB-231 [5] = experiment: Cytotoxicity against human MDA-MB-231 cells assessed as increase in red fluorescence at 0.4 to 0.8 uM by Calcein AM/PI staining based analysis; type: functional, cell-based; conditions: dose 0.4-0.8 µM
MDA-MB-231 [6] = experiment: Induction of apoptosis in human MDA-MB-231 cells assessed as early apoptotic cells at 0.4 uM incubated for 24 hrs by Annexin V-FITC/PI staining based flow cytometry (reference value: 7.39 %); type: functional
MDA-MB-231 [7] = experiment: Induction of apoptosis in human MDA-MB-231 cells assessed as late apoptotic cells at 0.4 uM incubated for 24 hrs by Annexin V-FITC/PI staining based flow cytometry (reference value: 5.81 %); type: functional
MDA-MB-231 [8] = experiment: Induction of apoptosis in human MDA-MB-231 cells assessed as necrotic cells at 0.4 uM incubated for 24 hrs by Annexin V-FITC/PI staining based flow cytometry (reference value: 0.59 %); type: functional
MDA-MB-231 [9] = experiment: Induction of apoptosis in human MDA-MB-231 cells assessed as late apoptotic cells at 0.8 uM incubated for 24 hrs by Annexin V-FITC/PI staining based flow cytometry (reference value: 5.81 %); type: functional
MDA-MB-231 [10] = experiment: Induction of apoptosis in human MDA-MB-231 cells assessed as viable cells at 1.2 uM incubated for 24 hrs by Annexin V-FITC/PI staining based flow cytometry (reference value: 86.2 %); type: functional; conditions: read-out: Activity
MDA-MB-231 [11] = experiment: Induction of apoptosis in human MDA-MB-231 cells assessed as early apoptotic cells at 1.2 uM incubated for 24 hrs by Annexin V-FITC/PI staining based flow cytometry (reference value: 7.39 %); type: functional
MCF-10A [12] = experiment: Induction of apoptosis in human MCF-10A cells assessed as necrotic cells at 0.4 uM incubated for 24 hrs by Annexin V-FITC/PI staining based flow cytometry (reference value: 1.38 %); type: toxicity, cell-based
MCF-10A [13] = experiment: Induction of apoptosis in human MCF-10A cells assessed as early apoptotic cells at 0.8 uM incubated for 24 hrs by Annexin V-FITC/PI staining based flow cytometry (reference value: 2.96 %); type: toxicity, cell-based
MCF-10A [14] = experiment: Induction of apoptosis in human MCF-10A cells assessed as late apoptotic cells at 0.8 uM incubated for 24 hrs by Annexin V-FITC/PI staining based flow cytometry (reference value: 3.13 %); type: toxicity, cell-based
MCF-10A [15] = experiment: Induction of apoptosis in human MCF-10A cells assessed as late apoptotic cells at 1.2 uM incubated for 24 hrs by Annexin V-FITC/PI staining based flow cytometry (reference value: 3.13 %); type: toxicity, cell-based
MDA-MB-231 [16] = experiment: Induction of cell cycle arrest in human MDA-MB-231 cells assessed as accumulation at G0/G1 phase at 0.4 uM by PI staining based flow cytometry (reference value: 64.6 %); type: functional
MDA-MB-231 [17] = experiment: Anti-migration activity in human MDA-MB-231 cells at 0.4 uM incubated for 48 hrs by wound healing assay (reference value: 65.2 %); type: functional
MDA-MB-231 [18] = experiment: Inhibition of mitochondrial membrane potential in human MDA-MB-231 cells assessed as increase in green fluorescence at 0.8 uM incubated for 24 hrs by JC-1 dye based analysis; type: functional, cell-based
MCF-10A [19] = experiment: Inhibition of mitochondrial membrane potential in human MCF-10A cells assessed as decrease in ATP level at 0.4 to 0.8 uM incubated for 24 hrs by luminescence based analysis; type: toxicity, cell-based; conditions: dose 0.4-0.8 µM
MCF-10A [20] = experiment: Inhibition of mitochondrial membrane potential in human MCF-10A cells assessed as increase in intracellular calcium level at 0.4 to 0.8 uM incubated for 24 hrs by Fluo-4 AM dye based analysis; type: toxicity, cell-based; conditions: dose 0.4-0.8 µM
MDA-MB-231 [21] = experiment: Antitumor activity against human MDA-MB-231 cells assessed as sphere-forming efficiency incubated for 6 hrs followed by medium replacement without compound measured after 6 days by microscopic analysis (reference value: 1.07 %); type: functional

Question: With `CC1(C)OB(c2ccc(C[n+]3cccc4cccc(O)c43)cc2)OC1(C)C.[Br-]` as the compound, how does the Drug metabolism [1] read?
Answer: The Drug metabolism was “metabolite_detected”.

Question: And the Drug metabolism [2]?
Answer: The Drug metabolism was “metabolite_detected”.

Question: What about the IC50 (MDA-MB-231 [3]) of the same compound?
Answer: Its IC50 is 0.83 µM.

Question: And the IC50 (A549)?
Answer: The IC50 was 3.48 µM.

Question: And the IC50 (OVCAR-3)?
Answer: Its IC50 is 6.63 µM.

Question: What about the Activity (MDA-MB-231 [4]) of the same compound?
Answer: The Activity was “Active”.

Question: What about the Activity (MDA-MB-231 [5]) of the same compound?
Answer: Its Activity is “Active”.

Question: What about the Activity (MDA-MB-231 [6]) of the same compound?
Answer: Its Activity is 14.2%.

Question: And the Activity (MDA-MB-231 [7])?
Answer: Its Activity is 13.2%.

Question: And the Activity (MDA-MB-231 [8])?
Answer: Its Activity is 1.47%.

Question: What about the Activity (MDA-MB-231 [9]) of the same compound?
Answer: The Activity was 27.9%.

Question: What about the viability at 1.2 µM (MDA-MB-231 [10]) of the same compound?
Answer: The viability at 1.2 µM was 6.61%.

Question: And the Activity (MDA-MB-231 [11])?
Answer: The Activity was 71%.

Question: What about the Activity (MCF-10A [12]) of the same compound?
Answer: The Activity was 0.36%.

Question: What about the Activity (MCF-10A [13]) of the same compound?
Answer: Its Activity is 2.18%.

Question: And the Activity (MCF-10A [14])?
Answer: The Activity was 3.77%.

Question: And the Activity (MCF-10A [15])?
Answer: The Activity was 3.73%.

Question: What about the Activity (MDA-MB-231 [16]) of the same compound?
Answer: The Activity was 68.1%.

Question: And the Activity (MDA-MB-231 [17])?
Answer: The Activity was 34.6%.

Question: What about the inhibition (MDA-MB-231 [18]) of the same compound?
Answer: The inhibition was “Active”.

Question: What about the Activity (MCF-10A [19]) of the same compound?
Answer: The Activity was “Non-toxic”.

Question: And the Activity (MCF-10A [20])?
Answer: Its Activity is “Non-toxic”.

Question: What about the Activity (MDA-MB-231 [21]) of the same compound?
Answer: Its Activity is 0.22%.
